biological target: T1, full-length beta-Catenin (Uniprot ID P35222) (Homo sapiens, UniProt P35222); test: Fluorescence polarization IC50 (beta-catenin / 5FAM-TCF4 10-53 competition); format: binding; conditions: beta-Catenin FP IC50, fluorescence polarization
T1 construct: 10 nM full-length beta-Catenin (Uniprot ID P35222)
T1 sequence (P35222 1-781): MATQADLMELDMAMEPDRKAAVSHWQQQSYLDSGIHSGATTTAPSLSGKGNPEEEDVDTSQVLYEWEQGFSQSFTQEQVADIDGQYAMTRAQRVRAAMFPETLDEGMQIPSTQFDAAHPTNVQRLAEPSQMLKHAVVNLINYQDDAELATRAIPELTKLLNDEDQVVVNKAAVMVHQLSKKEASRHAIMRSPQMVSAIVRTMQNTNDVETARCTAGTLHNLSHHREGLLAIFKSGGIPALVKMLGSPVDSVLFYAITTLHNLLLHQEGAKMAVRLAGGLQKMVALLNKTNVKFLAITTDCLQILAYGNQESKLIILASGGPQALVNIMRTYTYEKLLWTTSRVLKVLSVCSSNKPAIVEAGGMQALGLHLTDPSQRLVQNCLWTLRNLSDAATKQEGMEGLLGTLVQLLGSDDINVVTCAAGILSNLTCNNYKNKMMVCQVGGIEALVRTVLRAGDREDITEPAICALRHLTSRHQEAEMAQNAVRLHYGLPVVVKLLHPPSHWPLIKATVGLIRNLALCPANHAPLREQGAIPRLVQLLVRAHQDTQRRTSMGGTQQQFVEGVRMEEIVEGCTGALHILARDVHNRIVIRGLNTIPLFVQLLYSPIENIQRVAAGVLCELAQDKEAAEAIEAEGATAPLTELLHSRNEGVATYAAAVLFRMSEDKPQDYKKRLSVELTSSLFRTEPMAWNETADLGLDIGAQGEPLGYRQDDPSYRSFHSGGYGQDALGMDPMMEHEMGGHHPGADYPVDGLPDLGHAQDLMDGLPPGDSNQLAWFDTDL

| Compound | IC50 |
| --- | --- |
| CC(=O)N1CCC[C@]12CC=CCCCC1(CCCC=CCCCOC(=O)N3CC[C@@](C(=O)N[C@@H](Cc4ccccc4Cl)C(=O)N[C@@H](Cc4csc5ccccc45)C(=O)N[C@@H](CC(C)C)C(N)=O)(C3)NC(=O)[C@H](CC(C)C)NC(=O)[C@H](Cc3ccccc3)NC(=O)[C@H](C)NC(=O)[C@H](C)NC(=O)[C@H](CC(=O)O)NC(=O)[C@H](CC(=O)O)NC1=O)NC(=O)[C@H](CO)NC(=O)[C@H](CC(=O)O)NC2=O (stereo partly drawn) [I-1423, Ac-PL3-Asp-Ser-B5-Asp-Asp-Ala-Ala-Phe-Leu-PyrS2-2C1F-BztA-Leu-NH2] | 389 nM |
| CC(=O)N1CCC[C@]12CC=CCCCC1(CCCC=CCCCOC(=O)N3CC[C@@](C(=O)N[C@@H](Cc4ccccc4Cl)C(=O)N[C@@H](Cc4csc5ccccc45)C(=O)N[C@@H](CC(C)C)C(N)=O)(C3)NC(=O)[C@H](CC(C)C)NC(=O)[C@H](Cc3ccccc3)NC(=O)[C@H](C)NC(=O)[C@H](C)NC(=O)[C@H](CC(=O)O)NC(=O)[C@H](CC(=O)O)NC1=O)NC(=O)[C@H]([C@@H](C)O)NC(=O)[C@H](CC(=O)O)NC2=O (stereo partly drawn) [I-1424, Ac-PL3-Asp-Thr-B5-Asp-Asp-Ala-Ala-Phe-Leu-PyrS2-2C1F-BztA-Leu-NH2] | 235 nM |

same assay, conditions: fluorescence polarization, beta-catenin; read-out: FP EC50

| Compound | IC50 |
| --- | --- |
| CC(=O)N1CCC[C@]12CC=CCCCC1(CCCC=CCCCOC(=O)N3CC[C@@](C(=O)N[C@@H](Cc4ccccc4Cl)C(=O)N[C@@H](Cc4csc5ccccc45)C(=O)N[C@@H](CCC(N)=O)C(N)=O)(C3)NC(=O)[C@H](CC(N)=O)NC(=O)[C@H](Cc3ccccc3)NC(=O)[C@H](C)NC(=O)[C@H](C)NC(=O)[C@H](CN(CC(=O)O)Cc3c(F)c(F)c(F)c(F)c3F)NC(=O)[C@H](CC(=O)O)NC1=O)NC(=O)[C@H](CC(C)(C)C)NC(=O)[C@H](CC(=O)O)NC2=O (stereo partly drawn) [I-1448, Ac-PL3-Asp-Npg-B5-Asp-[Pfbn]GA-Ala-Ala-Phe-Asn-PyrS2-2C1F-BztA-Gln-NH2] | 20 nM |
| CC(=O)N1CCC[C@]12CC=CCCCC1(CCCC=CCCCOC(=O)N3CC[C@@](C(=O)N[C@@H](Cc4ccccc4Cl)C(=O)N[C@@H](Cc4csc5ccccc45)C(=O)N[C@@H](CCC(N)=O)C(N)=O)(C3)NC(=O)[C@H](CC(N)=O)NC(=O)[C@H](Cc3ccccc3)NC(=O)[C@H](C)NC(=O)[C@H](C)NC(=O)[C@H](CN(CC(=O)O)Cc3c(F)c(F)c(F)c(F)c3F)NC(=O)[C@H](CC(=O)O)NC1=O)NC(=O)[C@H](CC(C)(C)C)NC(=O)[C@H](CC(=O)O)NC2=O (stereo partly drawn) [I-1450, Ac-PL3-Asp-Npg-B5-Asp-[Pfbn]GA-Ala-Ala-Phe-Asn-PyrS2-2C1F-BztA-Gln-NH2] | 11 nM |
| CC(=O)N1CCC[C@]12CC=CCCCC1(CCCC=CCCCCCC[C@@](C)(C(=O)N[C@@H](Cc3ccsc3)C(=O)N[C@@H](Cc3csc4ccccc34)C(=O)N[C@@H](CCC(N)=O)C(N)=O)NC(=O)[C@H](CC(N)=O)NC(=O)[C@H](Cc3ccccc3)NC(=O)[C@H](C)NC(=O)[C@H](C)NC(=O)[C@H](CN(CC(=O)O)C(C)C)NC(=O)[C@H](CC(=O)O)NC1=O)NC(=O)[C@H](CC(C)(C)C)NC(=O)[C@H](CC(=O)O)NC2=O (stereo partly drawn) [I-1452, Ac-PL3-Asp-Npg-B5-Asp-[iPr]GA-Ala-Ala-Phe-Asn-S8-3Thi-BztA-Gln-NH2] | 66 nM |

same assay, conditions: fluorescence polarization; read-out: beta-Catenin FP IC50

| Compound | IC50 |
| --- | --- |
| CC(=O)N1CCC[C@]12CC=CCCCC1(CCCC=CCCCOC(=O)N3CC[C@@](C(=O)N[C@@H](Cc4ccsc4)C(=O)N[C@@H](Cc4cccc(F)c4F)C(=O)N[C@@H](CCC(N)=O)C(N)=O)(C3)NC(=O)[C@H](CC(C)C)NC(=O)[C@H](Cc3ccccc3)NC(=O)[C@H](C)NC(=O)[C@H](C)NC(=O)[C@H](CC(=O)O)NC(=O)[C@H](CC(=O)O)NC1=O)NC(=O)[C@H](CC(C)(C)C)NC(=O)[C@H](CC(=O)O)NC2=O (stereo partly drawn) [I-1425, Ac-PL3-Asp-Npg-B5-Asp-Asp-Ala-Ala-Phe-Leu-PyrS2-3Thi-23FF-Gln-NH2] | 239 nM |
| CC(=O)N1CCC[C@]12CC=CCCCC1(CCCC=CCCCOC(=O)N3CC[C@@](C(=O)N[C@@H](Cc4ccsc4)C(=O)N[C@@H](Cc4cccc(F)c4F)C(=O)N[C@@H](CO)C(N)=O)(C3)NC(=O)[C@H](CC(C)C)NC(=O)[C@H](Cc3ccccc3)NC(=O)[C@H](C)NC(=O)[C@H](C)NC(=O)[C@H](CC(=O)O)NC(=O)[C@H](CC(=O)O)NC1=O)NC(=O)[C@H](CC(C)(C)C)NC(=O)[C@H](CC(=O)O)NC2=O (stereo partly drawn) [I-1426, Ac-PL3-Asp-Npg-B5-Asp-Asp-Ala-Ala-Phe-Leu-PyrS2-3Thi-23FF-Ser-NH2] | 203 nM |
| CC(=O)N1CCC[C@]12CC=CCCCC1(CCCC=CCCCOC(=O)N3CC[C@@](C(=O)N[C@@H](Cc4ccccc4Cl)C(=O)N[C@@H](Cc4csc5ccccc45)C(=O)N[C@@H](CCC(N)=O)C(N)=O)(C3)NC(=O)[C@H](CC(N)=O)NC(=O)[C@H](Cc3ccccc3)NC(=O)[C@H](C)NC(=O)[C@H](C)NC(=O)[C@H](CN(CC(=O)O)Cc3c(F)c(F)c(F)c(F)c3F)NC(=O)[C@H](CC(=O)O)NC1=O)NC(=O)[C@H](CC(C)(C)C)NC(=O)[C@H](CC(=O)O)NC2=O (stereo partly drawn) [I-1448, Ac-PL3-Asp-Npg-B5-Asp-[Pfbn]GA-Ala-Ala-Phe-Asn-PyrS2-2C1F-BztA-Gln-NH2] | 20 nM |
| CC(=O)N1CCC[C@]12CC=CCCCC1(CCCC=CCCCOC(=O)N3CC[C@@](C(=O)N[C@@H](Cc4ccccc4Cl)C(=O)N[C@@H](Cc4csc5ccccc45)C(=O)N[C@@H](CCC(N)=O)C(N)=O)(C3)NC(=O)[C@H](CC(N)=O)NC(=O)[C@H](Cc3ccccc3)NC(=O)[C@H](C)NC(=O)[C@H](C)NC(=O)[C@H](CN(CC(=O)O)Cc3c(F)c(F)c(F)c(F)c3F)NC(=O)[C@H](CC(=O)O)NC1=O)NC(=O)[C@H](CC(C)(C)C)NC(=O)[C@H](CC(=O)O)NC2=O (stereo partly drawn) [I-1450, Ac-PL3-Asp-Npg-B5-Asp-[Pfbn]GA-Ala-Ala-Phe-Asn-PyrS2-2C1F-BztA-Gln-NH2] | 11 nM |
| CC(=O)N1CCC[C@]12CC=CCCCC1(CCCC=CCCCCCC[C@@](C)(C(=O)N[C@@H](Cc3ccsc3)C(=O)N[C@@H](Cc3csc4ccccc34)C(=O)N[C@@H](CCC(N)=O)C(N)=O)NC(=O)[C@H](CC(N)=O)NC(=O)[C@H](Cc3ccccc3)NC(=O)[C@H](C)NC(=O)[C@H](C)NC(=O)[C@H](CN(CC(=O)O)C(C)C)NC(=O)[C@H](CC(=O)O)NC1=O)NC(=O)[C@H](CC(C)(C)C)NC(=O)[C@H](CC(=O)O)NC2=O (stereo partly drawn) [I-1452, Ac-PL3-Asp-Npg-B5-Asp-[iPr]GA-Ala-Ala-Phe-Asn-S8-3Thi-BztA-Gln-NH2] | 66 nM |
